The target in one assay is T1, endothelin A-receptor (Homo sapiens, UniProt P25101).
T1 construct: host or cells: patients
T1 sequence (P25101 21-427): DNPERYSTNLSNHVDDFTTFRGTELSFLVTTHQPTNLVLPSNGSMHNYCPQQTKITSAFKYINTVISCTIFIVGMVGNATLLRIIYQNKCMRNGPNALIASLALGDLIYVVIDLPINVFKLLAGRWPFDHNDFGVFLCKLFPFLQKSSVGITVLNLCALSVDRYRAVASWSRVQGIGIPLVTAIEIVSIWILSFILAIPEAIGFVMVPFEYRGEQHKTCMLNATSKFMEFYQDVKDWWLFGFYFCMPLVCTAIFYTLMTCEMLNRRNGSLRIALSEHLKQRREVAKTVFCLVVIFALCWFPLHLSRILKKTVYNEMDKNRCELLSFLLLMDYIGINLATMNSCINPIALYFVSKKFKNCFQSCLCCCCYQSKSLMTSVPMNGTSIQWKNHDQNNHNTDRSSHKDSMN
The note with it: cited from earlier work.

In a further assay the test system is heart vasculature. Briefly: In vivo heart homing of individual phage-displayed peptides after intravenous injection. Details: species or system mouse. The conditions noted are these: for selective homing to the heart (in words): peptide displayed on T7 phage, intravenous injection into mice. The procedure: The indicated peptides identified from a combined screen for heart endothelial homing were reconstituted in T7 phage and individually administered by intravenous injection into mice. […] The highest specificity (over 300-fold) was recorded for the CRPPR (SEQ ID NO: 1)-displaying phage. (A) CRPPR (SEQ ID NO: 1) phage homing to heart, kidney, brain, muscle and lung. (B) CARPAR (SEQ ID NO: 5) phage homing to heart, kidney, brain, muscle and lung. (C) CKRAVR (SEQ ID NO: 7) phage homing to heart, kidney, brain, muscle and lung. (D) CLIDLHVMC (SEQ ID NO: 10) phage homing to heart, kidney, brain, muscle and lung. (E) CRSTRANPC (SEQ ID NO: 11) phage homing to heart, kidney, brain, muscle and lung. (F) CPKTRRVPC (SEQ ID NO: 12) phage homing to heart, kidney, brain, muscle and lung.
In vivo panning was performed as follows. The ex vivo-selected phage pool (5×10^9 p.f.u.) was intravenously injected into mice through the tail vein and allowed to circulate for ten minutes before mice were carefully perfused through the left ventricle with DMEM in order to remove unbound intravascular phage. The heart and control tissues (brain, kidney, skin and muscle) were excised, and phage recovered as described in Hoffman et al., supra, 2004. Phage recovered from the heart were reinjected into mice, and the cycle was repeated for a total of three rounds. Non-recombinant phage were injected into a separate mouse as a control in each experiment.
Individual phage clones were reconstructed as follows. Oligonucleotides that encoded peptides from selected bait plasmids were synthesized, phosphorylated with T4 polynucleotide kinase (PNK; NEB) at 37° C. for one hour, and annealed at a concentration of 0.08 pmol/μl. The annealed inserts were diluted to 0.04 pmol/μl and ligated into T7Select 415-1 arms (Novagen) with T4 ligase overnight at 16° C. The next day, intact recombinant phage were prepared by mixing the ligation reaction with packaging extracts as described by the manufacturer. Inserts were confirmed by sequencing, and individual clones were amplified for ex vivo and in vivo testing as described in Example I above.

In the next assay the test system is heart endothelia. The assay can be described thus: Phage localization in tissues by anti-T7 immunostaining, co-injected with fluorescein-conjugated tomato lectin. The assay is classed as in vivo, mouse. The note with it: peptide displayed on phage, injected intravenously with tomato lectin. The procedure: Further characterization was performed on the five most efficient homing peptides, as indicated by the fold-selectivity summarized in Table 1, and their putative receptors. These homing peptides were analyzed for the ability to selectively bind heart endothelia in vivo and for specific binding to their putative receptors, which also were analyzed for expression in heart endothelia. Each of the phage-displaying a particular homing peptide was individually injected intravenously into mice with fluorescein-conjugated tomato lectin, a blood vessel marker. […] None of the six phage were detected in tissues other than heart under the same conditions.
Immunohistochemistry was performed as follows. Rat monoclonal anti-mouse CD31 (1:100) was obtained from BD Pharmingen (San Jose, Calif.), and rabbit polyclonal anti-T7 phage (1:500), and chicken anti-mouse CRIP2 IgY (1:100) were obtained from GenWay (San Diego, Calif.). Secondary antibodies, AlexaFluor-488 goat anti-rat IgG (1:1000) and AlexaFluor-594 goat anti-rat or rabbit IgG (1:1000) were obtained from Molecular Probes (Eugene, Oreg.); the secondary antibody GAYFC-AlexaFluor 594 goat anti-IgY Fc (1:250) was obtained from GenWay. Frozen sections were preincubated with blocking buffer (5% normal goat serum and 0.5% BSA in 1×PBS) for one hour, washed three times with PBS, and incubated with the primary antibody of interest overnight at 4° C. After the overnight incubation, secondary antibodies were added and incubated for one hour at room temperature. Slides were washed three times with PBS and mounted in Vectashield Mounting Medium with DAPI (Vector Laboratories; Burlingame, Calif.). Blood vessels were additionally visualized by intravenous injection with Lycopersicon esculentum (tomato) lectin conjugated to fluorescein (100 μg in 200 μl of PBS) purchased from Vector Laboratories.

Another assay addresses T2, Sigirr/TIR8 (Mus musculus, UniProt Q9JLZ8).
T2 construct: Full-length cDNAs were constructed for four of the putative heart homing receptors; expressed in transfected cells; host or cells: 293T cells, pMH6-derived plasmid
T2 sequence (Q9JLZ8 1-409): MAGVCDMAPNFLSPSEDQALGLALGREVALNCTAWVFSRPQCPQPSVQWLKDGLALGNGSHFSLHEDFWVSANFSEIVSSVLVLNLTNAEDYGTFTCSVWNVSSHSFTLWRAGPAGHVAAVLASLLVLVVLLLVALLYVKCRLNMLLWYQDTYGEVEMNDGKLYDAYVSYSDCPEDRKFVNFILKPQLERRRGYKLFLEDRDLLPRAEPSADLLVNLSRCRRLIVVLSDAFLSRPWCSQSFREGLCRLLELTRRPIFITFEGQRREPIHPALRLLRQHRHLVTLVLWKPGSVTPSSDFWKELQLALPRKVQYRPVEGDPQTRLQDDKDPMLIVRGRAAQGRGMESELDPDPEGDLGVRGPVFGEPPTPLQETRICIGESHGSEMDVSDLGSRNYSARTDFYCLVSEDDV
Briefly: Phage binding to receptor-transfected 293T cells and peptide competition. Details: species or system murine. The note with it: free synthetic peptide 100 μg/ml. The procedure:
(§1) Receptor transfections and phage binding assays were performed as follows. 293T cells were transfected with pMH6-derived plasmids (Roche Diagnostics; Indianapolis, Ind.) encoding HLP/CRIP2, Sigirr/TIR8, MpcII-3-related protein and bc10 using the Fugene transfection reagent (Roche Diagnostics). Briefly, 10 μg of plasmid was mixed with 700 μl of serum-free DMEM and 30 μl of Fugene transfection reagent and incubated for 15 minutes at room temperature before the mixture was added to cells. After forty-eight hours, cells were detached from culture dishes using EDTA and washed once with PBS. Phage displaying CRPPR (SEQ ID NO: 1), CKRAVR (SEQ ID NO: 7), CRSTRANPC (SEQ ID NO: 11) or CPKTRRVPC (SEQ ID NO: 12) and nonrecombinant control phage (1×10^9 p.f.u) were incubated with transfected cells for two hours at 4° C. Unbound phage were removed by five washes with 1% BSA in PBS. Bound phage were rescued by addition of bacteria; binding efficiencies were determined by plaque assay as described above.
(§2) Peptides for competition assays were synthesized at The Burnham Institute peptide facility using Fmoc chemistry in a solid-phase synthesizer prior to purification by HPLC and confirmation of their identity by mass spectrometry. Fluorescein-conjugated peptides were synthesized as described in Wender et al., Proc. Natl. Acad. Sci. USA 97:13003-13008 (2000). Competition assays were performed by addition of 100 μg peptide to the cells and phage, followed by incubation at 4° C. for two hours. After five washes with […], bound phage were rescued and quantitated by plaque assay.

The next assay addresses T3, bc10 (Mus musculus, UniProt P62951).
T3 construct: Full-length cDNAs were constructed for four of the putative heart homing receptors; expressed in transfected cells; host or cells: 293T cells, pMH6-derived plasmid
T3 sequence (P62951 1-87): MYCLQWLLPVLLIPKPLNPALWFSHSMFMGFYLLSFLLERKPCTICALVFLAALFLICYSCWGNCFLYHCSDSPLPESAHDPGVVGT
Described as above. Details: species or system murine. The conditions noted are these: free synthetic peptide 100 μg/ml. As to the method:
as §1, §2

For a further assay, the target named is T4, HLP/CRIP2 (Mus musculus, UniProt Q9DCT8).
T4 construct: Full-length cDNAs were constructed for four of the putative heart homing receptors; expressed in transfected cells; host or cells: 293T cells, pMH6-derived plasmid
T4 sequence (Q9DCT8 1-208): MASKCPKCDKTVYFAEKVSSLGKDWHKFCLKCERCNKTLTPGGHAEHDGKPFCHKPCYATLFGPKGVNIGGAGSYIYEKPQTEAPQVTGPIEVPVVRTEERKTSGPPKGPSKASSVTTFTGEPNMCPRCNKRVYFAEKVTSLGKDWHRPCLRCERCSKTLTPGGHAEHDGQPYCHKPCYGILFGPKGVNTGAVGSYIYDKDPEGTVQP
The description is as above. Details: species or system murine. The conditions noted are these: free synthetic peptide 100 μg/ml. The procedure: as §1, §2

In assay [1] the test system is heart-derived cell suspensions. Briefly: Competition of CRPPR-displaying phage binding to heart-derived cell suspensions. The assay is classed as cell-based, murine. The note with it: various concentrations of antibody or free peptide. The procedure: CRPPR (SEQ ID NO: 1)-displaying phage were incubated with cell suspensions prepared from the heart; phage binding was measured in the presence and absence of various concentrations of the indicated antibodies or peptides. (A) A chicken anti-CRIP2 antibody blocked SEQ ID NO: 1-displaying phage binding to heart cells; normal IgY was used as the negative control. […] (C) In vivo homing of the CRPPR (SEQ ID NO: 1)-displaying phage to the heart was inhibited by co-injected anti-CRIP2 antibody. Shown are the mean and standard deviation from three separate experiments.
The specificity of CRPPR (SEQ ID NO: 1)-phage binding to heart vasculature was assayed using competition assays. […] As negative controls, two other heart-homing peptides had no effect on the CRPPR (SEQ ID NO: 1)-phage binding. Furthermore, co-injected anti-HLP/CRIP2 antibody inhibited in vivo homing of CRPPR (SEQ ID NO: 1)-phage (FIG. 7C).

The next assay addresses T5, MpcII-3-related protein (Mus musculus, UniProt Q9CZB0).
T5 construct: Full-length cDNAs were constructed for four of the putative heart homing receptors; expressed in transfected cells; host or cells: 293T cells, pMH6-derived plasmid
T5 sequence (Q9CZB0 30-169): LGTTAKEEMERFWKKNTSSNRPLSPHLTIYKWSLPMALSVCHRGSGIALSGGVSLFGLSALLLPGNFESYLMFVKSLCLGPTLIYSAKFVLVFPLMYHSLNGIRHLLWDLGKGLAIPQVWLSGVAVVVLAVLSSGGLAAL
Briefly: Phage binding to receptor-transfected 293T cells and peptide competition. The conditions noted are these: free synthetic peptide 100 μg/ml. Details: species or system murine. The procedure: as §1, §2

We go through ten compounds from patent US8987213B2, “Peptides that selectively home to heart vasculature and related conjugates and methods” (Sanford-Burnham Medical Research Institute, priority 2004, dated 2015).

Entries after “also recorded” stand apart in the source; their conditions may differ. Where no end group is shown, it is not given here.

Turning to `Cc1cc2c(cc1CC(=O)c1sccc1S(=O)(=O)Nc1onc(C)c1Cl)OCO2` [TBC 11251], the “clinical effect in patients with moderate to severe congestive heart failure” value on endothelin A-receptor is “significant improvement”.
As to CARPAR (displayed on phage), in the assay on heart vasculature, the “selective homing to the heart (in words)” value is on record as “exhibited selective homing to the heart”. Besides, in the assay on heart endothelia, the “phage detection in tissues other than heart (anti-T7 antibody)” value (shortened to “phage detection”) is given as “absent from other tissues” and the “phage localization in heart endothelia (anti-T7 antibody)” value (shortened to “phage localization in heart endothelia”) is recorded as “present in heart endothelia”.
For the compound CGNQVDSRC (displayed on T7 phage), the “selective homing to the heart (in words)” value in the assay with heart vasculature is “no significant selective homing”.
In the case of CKRAVR [on phage and as free peptide], in the assay with heart endothelia, the “phage detection” value was “absent from other tissues” and the “phage localization in heart endothelia” value is given as “present in heart endothelia”. Besides, the “inhibition of CKRAVR-phage binding to Sigirr/TIR8-transfected cells by free peptide” value in the assay with Sigirr/TIR8 is recorded as “inhibited”.
As to “CLIDLHVMC (displayed on phage) [peptide identified with receptor clone 27; negative control phage]”, the “selective homing to the heart (in words)” value in the assay on heart vasculature is listed as “no specific homing to the heart”. Besides, the “phage localization in heart endothelia” value in the assay on heart endothelia is “absent from the heart”; with heart endothelia (listed as SEQ ID NO: 10) it was “absent from the heart and other tissues”.
Turning to CPKRPR (displayed on phage), in the assay with heart vasculature, the “selective homing to the heart (in words)” value was “exhibited selective homing to the heart”.
Consider “CPKTRRVPC [on phage and as free peptide]”, for which, in the assay with heart endothelia, the “phage detection” value is reported as “absent from other tissues” and the “phage localization in heart endothelia” value is listed as “present in heart endothelia”. In addition, the “inhibition of CPKTRRVPC-phage binding to bc10-transfected cells by free peptide” value in the assay with bc10 is on record as “inhibited”.
Regarding CPSELLLP (displayed on phage), the “selective homing to the heart (in words)” value with heart vasculature is on record as “did not”.
In the case of “CRPPR (not fully specified) [tested on T7 phage, as free peptide and fluorescein-conjugated]”, the “phage homing to the lungs” value in the assay with heart vasculature (peptide displayed on phage, lung tissue) is “little”. Besides, in the assay on heart endothelia, the “phage detection” value is reported as “absent from other tissues” and the “phage localization in heart endothelia” value is “present in heart endothelia”. Besides, in the assay with HLP/CRIP2, the “inhibition of CRPPR-phage binding to HLP/CRIP2-transfected cells by free peptide” value is on record as “inhibited”. In addition, the “inhibition of CRPPR-displaying phage binding to heart-derived cell suspensions” value in assay [1] is recorded as “blocked; also recorded: Dose dependent inhibition”.
With “CRSTRANPC [on phage and as free peptide]”, in the assay on heart endothelia, the “phage detection” value is “absent from other tissues” and the “phage localization in heart endothelia” value is on record as “present in heart endothelia”. For the same compound, the “inhibition of CRSTRANPC-phage binding to MpcII-3-related protein-transfected cells by free peptide” value with MpcII-3-related protein is reported as “inhibited”.
